Source: publication PMC4959752, “Pharmacokinetics in Wistar Rats of 5-[(4-Carboxybutanoyl)Amino]-2-Hydroxybenzoic Acid: A Novel Synthetic Derivative of 5-Aminosalicylic Acid (5-ASA) with Possible Anti-Inflammatory Activity” (PLoS ONE, 2016)
“Also recorded” adds a separate entry of the source.

Columns and labels:
Wistar rats = tested on: Wistar rats; design: method as in ref 37 = [37]; 37 OECD Guidelines for the Testing of Chemicals 425: Acute Oral Toxicity—Up-and-Down-Procedure (UDP). 2008.; conditions: acute toxicity; cited from earlier work
Log P = type: physicochemical; conditions: method not given
[1] = Tissue distribution study; type: in vivo, Wistar rats
Experimental: […] The animals were sacrificed 10, 30, 90, 180 and 360 min after dosing (n = 3 per treatment time). The whole brain, heart, liver, spleen, lung, kidney, stomach, small intestine, colon, testicles and muscle were rapidly dissected, harvested and thoroughly rinsed in ice-cold saline to eliminate blood and other content. All tissues and organs were weighed on an analytical balance and immediately processed for analysis. Each tissue sample was homogenized with saline solution at a 1:3 (wt/v) ratio. The preparation process for analysis was the same as that described above for plasma.

[2] = Stability of C2 in rat plasma samples; type: in vitro ADME; conditions: for Difference respect the nominal concentration (%): rat plasma deproteinized samples
Experimental: The stability of C2 in plasma was evaluated using the QC samples at two concentrations by triplicate ([…]); these samples were stored at 25°C for 12, 24 and 36 h (short-term stability) and subjected to three freeze-thaw cycles (–20°C to 25°C). The post-preparative storage was evaluated by analyzing the ready-to-inject samples that had been refrigerated 4°C for 12, 24 and 36 h. The concentration of C2 after each storage period was related to the initial concentration of freshly prepared and immediately processed samples [40, 41].

O=C(O)CCCC(=O)Nc1ccc(O)c(C(=O)O)c1 [C2, 5-[(4-carboxybutanoyl)amino]-2-hydroxybenzoic acid]
LD50 (Wistar rats): > 2000 mg/kg | logP (Log P): 1.3 | crossing of blood-brain barrier / hemato-testicular barrier (presence in brain and testicles) ([1]; Wistar rats, i.g. and i.p.): effectively crossed the blood-brain barrier and hemato-testicular barrier; also recorded: able to cross the blood brain barrier | tissue distribution ([1]; i.g. and i.p. routes, before the 2 h time point): widely distributed in all examined tissues | tissue distribution ([1]; single intragastric or oral dose (100 mg/kg), Wistar rats, 100 mg/kg): distributed and detected in all examined tissues (including the brain and colon); also recorded: well distributed in all tissues | Difference respect the nominal concentration (%) ([2]; Refrigeration (4°C), 12 h, 1 μg/mL): 0.8% | Difference respect the nominal concentration (%) ([2]; Refrigeration (4°C), 12 h, 2.5 μg/mL): 1.5% | Difference respect the nominal concentration (%) ([2]; Refrigeration (4°C), 12 h, 25 μg/mL): 0.1% | Difference respect the nominal concentration (%) ([2]; Refrigeration (4°C), 12 h, 100 μg/mL): 0.5% | Difference respect the nominal concentration (%) ([2]; Refrigeration (4°C), 24 h, 1 μg/mL): 2.2% | Difference respect the nominal concentration (%) ([2]; Refrigeration (4°C), 24 h, 2.5 μg/mL): 2.6% | Difference respect the nominal concentration (%) ([2]; Refrigeration (4°C), 24 h, 25 μg/mL): 3.1% | Difference respect the nominal concentration (%) ([2]; Refrigeration (4°C), 24 h, 100 μg/mL): 0.4% | Difference respect the nominal concentration (%) ([2]; Refrigeration (4°C), 36 h, 1 μg/mL): 5.3% | Difference respect the nominal concentration (%) ([2]; Refrigeration (4°C), 36 h, 2.5 μg/mL): 2.9% | Difference respect the nominal concentration (%) ([2]; Refrigeration (4°C), 36 h, 25 μg/mL): 4.3% | Difference respect the nominal concentration (%) ([2]; Refrigeration (4°C), 36 h, 100 μg/mL): 0.6% | Difference respect the nominal concentration (%) ([2]; Room Temperature (25°C), 12 h, 1 μg/mL): 1.4% | Difference respect the nominal concentration (%) ([2]; Room Temperature (25°C), 12 h, 2.5 μg/mL): 1.0% | Difference respect the nominal concentration (%) ([2]; Room Temperature (25°C), 12 h, 25 μg/mL): 0.3% | Difference respect the nominal concentration (%) ([2]; Room Temperature (25°C), 12 h, 100 μg/mL): 0.3% | Difference respect the nominal concentration (%) ([2]; Room Temperature (25°C), 24 h, 1 μg/mL): 2.1% | Difference respect the nominal concentration (%) ([2]; Room Temperature (25°C), 24 h, 2.5 μg/mL): 2.3% | Difference respect the nominal concentration (%) ([2]; Room Temperature (25°C), 24 h, 25 μg/mL): 2.9% | Difference respect the nominal concentration (%) ([2]; Room Temperature (25°C), 24 h, 100 μg/mL): 0.7% | Difference respect the nominal concentration (%) ([2]; Room Temperature (25°C), 36 h, 1 μg/mL): 5.8% | Difference respect the nominal concentration (%) ([2]; Room Temperature (25°C), 36 h, 2.5 μg/mL): 2.6% | Difference respect the nominal concentration (%) ([2]; Room Temperature (25°C), 36 h, 25 μg/mL): 3.7% | Difference respect the nominal concentration (%) ([2]; Room Temperature (25°C), 36 h, 100 μg/mL): 1.7% | Difference respect the nominal concentration (%) ([2]; freeze–thaw (–20 to 25°C), Cycle 2 (24 h), 1 μg/mL): 2.7% | Difference respect the nominal concentration (%) ([2]; freeze–thaw (–20 to 25°C), Cycle 2 (24 h), 2.5 μg/mL): 2.9% | Difference respect the nominal concentration (%) ([2]; freeze–thaw (–20 to 25°C), Cycle 2 (24 h), 25 μg/mL): 1.7% | Difference respect the nominal concentration (%) ([2]; freeze–thaw (–20 to 25°C), Cycle 2 (24 h), 100 μg/mL): 0.5% | Difference respect the nominal concentration (%) ([2]; freeze–thaw (–20 to 25°C), Cycle 3 (36 h), 1 μg/mL): 6.0% | Difference respect the nominal concentration (%) ([2]; freeze–thaw (–20 to 25°C), Cycle 3 (36 h), 2.5 μg/mL): 5.1% | Difference respect the nominal concentration (%) ([2]; freeze–thaw (–20 to 25°C), Cycle 3 (36 h), 25 μg/mL): 1.7% | Difference respect the nominal concentration (%) ([2]; freeze–thaw (–20 to 25°C), Cycle 3 (36 h), 100 μg/mL): 0.6% | Difference respect the nominal concentration (%) ([2]; freeze–thaw (–20 to 25°C), cycle 1 (12 h), 1 μg/mL): 1.8% | Difference respect the nominal concentration (%) ([2]; freeze–thaw (–20 to 25°C), cycle 1 (12 h), 2.5 μg/mL): 1.8% | Difference respect the nominal concentration (%) ([2]; freeze–thaw (–20 to 25°C), cycle 1 (12 h), 25 μg/mL): 2.0% | Difference respect the nominal concentration (%) ([2]; freeze–thaw (–20 to 25°C), cycle 1 (12 h), 100 μg/mL): 0.5% | stability in rat plasma ([2]; stored at 4°C and 25°C for 36 h): stable
